Like-named read-outs stand apart in the source and are kept apart here.
Key:
[1] = test system: transgenic corn plants transformed with DNA constructs carrying DMO; settings: for Percentage brace root injury: 0.5 lb/a at V3 followed by 1 lb/a at V8
From the text: This expression element contains first intron and flanking UTR exon sequences from the rice actin 1 gene and includes 12 nt of exon 1 at the 5′ end and 7 nt of exon 2 at the 3′ end), and a 3′UTR (e.g. TaHsp17). Nucleotide sequences/an or patent references for various expression elements are disclosed in co-pending application U.S. Ser. No. 60/891,675.
Transgenic corn plants were produced by the methods known in the art such as WO9506722 and US patent application 20040244075. […] Six events from each of the six constructs were used. […] The entire plot was fertilized uniformly to obtain an agronomically acceptable crop. A soil insecticide such as Force® 3G (Syngenta Crop Protection, Greensboro, N.C., USA) at 5 oz. per 1000 ft. of row for control of corn rootworm was applied at planting time. If black cutworm infestation was observed, POUNCE® 3.2EC at 4 to 8 oz. per acre rate (FMC Corporation, Philadelphia, Pa.) was used. In addition, an insecticide spray program was used to control all above ground lepidopteran pests including European corn borer, corn earworm, and fall armyworm. POUNCE® 3.2EC at 4 to 8 oz. per acre was applied every 3 weeks to control lepidopteran pests; about 4 applications were made. The plot was kept weed free with a pre-emergence application of a herbicide such as Harness® Xtra 5.6 L (Monsanto, St. Louis, Mo.) and Degree Xtra® (Monsanto, St. Louis, Mo.).
Brace root injury was evaluated visually by counting the number of plants in a row showing an “atypical” morphology of having the brace roots fused as compared to a typical morphology of “finger-like” structure.

[2] = test system: soybean plants transformed with the DMO-encoding polynucleotide construct (Events 1-4)
Method: Transgenic soybean plants were obtained by Agrobacterium transformation of soybean cotyledonary nodes using standard procedures and a binary vector containing the DMO-encoding polynucleotide given as SEQ ID NO:7, which encodes the polypeptide of SEQ ID NO:8. Four transgenic soybean events were prepared and designated Events 1-4. […] Non-transgenic soybean plants were used as controls.
Transgenic and control soybean seeds were planted into 3.5-inch square plastic pots containing Redi-earth™ (Scotts-Siena Horticultural Products Co., Marysville, Ohio). […] The pots were placed on capillary matting in 35 inch×60 inch fiberglass watering trays for overhead and/or sub-irrigation for the duration of the test period so as to maintain optimum soil moisture for plant growth and were fertilized with Osmocote (14-14-14 slow release; Scotts-Siena Horticultural Products Co., Marysville, Ohio) at the rate of 100 gm/cu.ft. to sustain plant growth for the duration of greenhouse trials.
The plants were grown in greenhouses at 27°/21° C. day/night temperature with relative humidity between 25%-75% to simulate warm season growing conditions of late spring. A 14 h minimum photoperiod was provided with supplemental light at about 600 μE as needed.
Treated plants in greenhouse trials were visually assessed at a particular day after treatment (DAT) for injury on a scale of 0 to 100 percent relative to untreated control plants, with zero representing “no” injury and 100% representing “complete” injury or death. Data were collected and analyzed using suitable statistical methods.
The spray nozzle was kept at a height of about 16 inches above the top of the plant material for spraying. The spray volume was 10 gallons per acre or 93 liters per hectare.

In the case of COc1c(Cl)ccc(Cl)c1C(=O)O [dicamba, 3,6-dichloro-o-anisic acid], the “level of brace root injury” value ([1]; constructs coding for a DMO linked to a CTP (pMON73716, pMON73700, pMON73715, pMON73703)) is reported as “lower level of brace root injury”, the “level of brace root injury” value ([1]; constructs coding for a DMO without CTP (pMON73699, pMON73704)) is reported as “higher level of brace root injury” and the “Percentage brace root injury” value ([1]; pMON73699 (PC1SV/I-OsAct1/DMO-Wmc/TaHsp17)) is reported as 93.2%. For the same compound, the “Percentage brace root injury” value ([1]; pMON73700 (PC1SV/I-OsAct1/CTP1/DMO-Wmc/TaHsp17)) was 74.4%, the “Percentage brace root injury” value ([1]; pMON73703 (e35S/I-OsAct1/CTP1/DMO-Wmc/TaHsp17)) was 68.8% and the “Percentage brace root injury” value ([1]; pMON73704 (e35S/I-OsAct1/DMO-Wmc/TaHsp17)) was 91.3%. For the same compound, the “Percentage brace root injury” value ([1]; pMON73715 (PC1SV/I-OsAct1/CTP2syn/DMO-Wmc/TaHsp17)) was 68.2%, the “Percentage brace root injury” value ([1]; pMON73716 (PC1SV/I-OsAct1/TaWaxy/DMO-Wmc/TaHsp17)) was 78.8% and the “injury to transgenic dicamba tolerant plants” value ([2]; approximately 2× rate of application of 1122 g/ha) was “less than 2%”. For the same compound, the “injury to transgenic plants” value ([2]; at sowing + post-emergence, overall dicamba rate 10080 g/ha, 9 lb/acre, 18× labeled rate) was “less than 20%”, the “injury to transgenic events” value ([2]; late pre-emergence + post-emergence, overall 10080 g/ha, 9 lb/acre, 18× labeled rate) was “less than 20%” and the “injury in the transgenic events” value ([2]; late pre-emergence at soil cracking, 5040 g/ha, 4.5 lb/acre, 9× labeled rate) was “less than 5%”.

Reference: US8629328B2 (Monsanto Technology LLC, priority 2006, dated 2014)
